melting point [°C]	SMILES
130 to 131	Cc1cc(F)ccc1[C@H]1C[C@H](NCC(N)=O)CCN1C(=O)N(C)Cc1cc(C(F)(F)F)cc(C(F)(F)F)c1.Cl
100 to 101	Cc1cc(F)ccc1[C@H]1C[C@@H](NCC(N)=O)CCN1C(=O)N(C)Cc1cc(C(F)(F)F)cc(C(F)(F)F)c1.Cl
180 to 183	Cc1cc(F)ccc1[C@H]1C[C@H](N(C)C)CCN1C(=O)N(C)Cc1cc(C(F)(F)F)cc(C(F)(F)F)c1.Cl
147 to 150	Cc1cc(F)ccc1[C@H]1C[C@@H](N(C)C)CCN1C(=O)N(C)Cc1cc(C(F)(F)F)cc(C(F)(F)F)c1.Cl
145 to 146	Cc1cc(F)ccc1[C@H]1C[C@H](NCCF)CCN1C(=O)N(C)Cc1cc(C(F)(F)F)cc(C(F)(F)F)c1.Cl
